Results from patent US9765075B2, “Substituted bridged urea analogs as sirtuin modulators” (GLAXOSMITHKLINE LLC, priority 2013, dated 2017).
Residue numbers refer to the chain shown, from its start. Where a name gives a salt, the structure may show the parent alone.

How the values were obtained:
Type in all cases: biochemical
full-length hSIRT1 E230A = target: T1, full-length hSIRT1 E230A (Homo sapiens, UniProt Q96EB6, E230A); experiment: SIRT1 activation dose-response, OAcADPr assay with Ac-p53(W5) substrate; conditions: for EC50: hSIRT1 E230A, activation dose-response, Ac-p53(W5) substrate
T1 construct: His6 (C); made in house
T1 sequence (Q96EB6 1-747 E230A): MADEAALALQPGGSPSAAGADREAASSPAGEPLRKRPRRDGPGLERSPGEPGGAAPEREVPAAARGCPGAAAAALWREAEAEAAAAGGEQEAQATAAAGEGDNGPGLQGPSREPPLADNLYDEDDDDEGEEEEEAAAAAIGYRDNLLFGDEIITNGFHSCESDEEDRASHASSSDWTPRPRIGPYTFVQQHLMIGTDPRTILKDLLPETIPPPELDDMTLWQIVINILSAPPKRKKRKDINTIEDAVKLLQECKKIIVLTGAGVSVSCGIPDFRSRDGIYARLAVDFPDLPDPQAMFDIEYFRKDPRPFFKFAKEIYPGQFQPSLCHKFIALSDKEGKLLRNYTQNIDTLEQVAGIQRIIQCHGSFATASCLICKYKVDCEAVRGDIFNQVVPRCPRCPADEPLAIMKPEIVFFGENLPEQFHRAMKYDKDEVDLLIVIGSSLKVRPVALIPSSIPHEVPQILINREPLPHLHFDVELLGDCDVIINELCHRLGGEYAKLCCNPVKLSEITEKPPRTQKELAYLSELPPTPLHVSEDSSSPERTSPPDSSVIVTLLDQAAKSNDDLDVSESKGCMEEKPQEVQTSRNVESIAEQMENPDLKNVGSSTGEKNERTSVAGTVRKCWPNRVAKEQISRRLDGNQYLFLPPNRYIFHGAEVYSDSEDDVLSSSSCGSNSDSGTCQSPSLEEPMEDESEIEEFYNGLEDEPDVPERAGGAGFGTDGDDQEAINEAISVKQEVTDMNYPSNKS
Experimental: SIRT1 activation and inhibition assays were run in reaction buffer with 0.05% BSA at 25° C. and analyzed using the OAcADPr assay. Enzyme and compound were pre-incubated for 20 minutes before addition of substrates. […] The dose-dependence of five compounds was tested and the fold-activation data were described by Eq. 1
[formula] where vx/v0 is the ratio of the reaction rate in the presence (vx) versus absence (v0) of activator (X), RVmax is the relative velocity at infinite activator concentration, EC50 is the concentration of activator required to produce one-half RVmax and b is the minimum value of vx/v0.

[1] = target: T2, full-length hSIRT1 wild-type (Homo sapiens, UniProt Q96EB6); experiment: SIRT1 inhibition assay, OAcADPr mass spectrometry
T2 construct: Full-length human SIRT1 (hSIRT1) proteins were expressed with a C-terminal His6 tag; His6 (C); made in house
T2 sequence (Q96EB6 1-747): T1 sequence (Q96EB6 1-747 E230A) with A230E
Experimental: (§1) SIRT1 activation and inhibition assays were run in reaction buffer with 0.05% BSA at 25° C. and analyzed using the OAcADPr assay. Enzyme and compound were pre-incubated for 20 minutes before addition of substrates.

full-length hSIRT1 V224A = target: T3, full-length hSIRT1 V224A (Homo sapiens, UniProt Q96EB6, V224A); experiment: SIRT1 inhibition assay, OAcADPr mass spectrometry
T3 construct: The following point mutants of full-length hSIRT1 were generated; His6 (C); made in house
T3 sequence (Q96EB6 1-747 V224A): T1 sequence (Q96EB6 1-747 E230A) with V224A, A230E
Experimental: as §1

Structure (SMILES)	EC50 fold shift (mutant EC50/wild-type EC50) (full-length hSIRT1 E230A)	RVmax fold shift = (wild-type RVmax−1)/(mutant RVmax−1) (full-length hSIRT1 E230A)	EC50 (full-length hSIRT1 E230A) [nM]	IC50 [1] [nM]	IC50 (full-length hSIRT1 V224A) [nM]
O=C(Nc1ccccn1)N1c2nc(-c3cccc(C(F)(F)F)c3)ccc2N2CC[C@H]1C2 [Example 7]	1.19	3.58	2610	–	–
Cc1cnc2c(NC(=O)N3c4nc(-c5cccc(C(F)(F)F)c5)ccc4N4CC[C@H]3C4)cccc2n1 [Example 8]	1.11	2.39	530	–	–
CCCC[C@H](NC(=O)[C@H](CC(C)C)NC(=O)[C@H](CCCCNC(=O)C(F)(F)F)NC(=O)[C@H](CCCCN)NC(=O)[C@H](Cc1c[nH]cn1)NC(=O)[C@H](CCCNC(=N)N)NC(C)=O)C(=O)N[C@@H](Cc1ccccc1)C(N)=O [TFA-p53 7-mer, Ac-RHK-K^TFA-L-Nle-F-NH2]	–	–	–	680 ± 70	860 ± 80
